Data: US8883849B2, “Treatment of sleep disturbances” (Wyeth LLC, priority 2001, dated 2014)
Entries after “also recorded” stand apart in the source; their conditions may differ. Where two headings read alike, the source gives them in different places. Marks after values point to notes of the source that are not given here.

Assays:
[1] = system: patients evaluated for sleep disturbances after oral surgery; assay: Study A: single dose after oral surgery, ibuprofen, diphenhydramine and combination vs placebo; format: in vivo, human; conditions: diphenhydramine HCl 50 mg; for Duration of Sleep: 6-point categorical scale 0 (≦5 hours) to 5 (≧9 hours); for Global Evaluation: global evaluation of sleep, 5-point categorical scale; for Cumulative % Asleep at 60 minutes: nurse graded; for Sleep Latency (median): nurse observed, single dose ibuprofen 400 mg; for Time to Rescue (median): nurse recorded; for SPRID3: time-weighted sum of pain relief and pain intensity differences over 0-3 hours
Description: A single center, inpatient, single dose, randomized (stratified by gender and baseline pain severity), double blind, double dummy, parallel group placebo controlled study was used.
In a double dummy scenario, patients are given multiple dosage forms, one study medication for the group in which they are assigned, and placebos resembling the dosage forms for the other study groups. […] The combination was in a soft gelatin capsule formulation.
The art recognizes that patient-assessed duration of sleep is a very good indicator of the amount of sleep received by the patient. If patients requested rescue medication within an hour of receiving treatment, they were considered protocol violators and removed from the study.
The SPRID3 calculation was as follows. AT 90 minutes, 2 hours, and 3 hours, the patients were woken and asked two questions: how much relief of pain have you had? (no relief=0, a little=1, some=2, a lot=3, complete=4) and what is the severity of your pain? (none=0, mild=1, moderate=2, severe=3). Pain intensity difference (PID) was determined by subtracting the severity of pain score at the time in question to the baseline score measured before treatment. The pain relief rating (PPR) was then added to the PID for a PRID score. The PRID scores were plotted on a graph over time for each patient, and the SPRID3 score was read as the area under the curve for each patient's PRID plot. SPRID3 is a combination measurement of pain relief and pain severity.
In this model, only one hour of phase shifting sleeplessness was induced, compared to three hours in subsequent studies. In other words, patients were required to go to sleep one hour earlier than their bedtime.

[2] = Interaction and stability testing of ibuprofen and diphenhydramine in one composition; format: physicochemical; conditions: dissolution, appearance, potency
Description: An ion pair or salt could, thus, be formed. Such an interaction creates a more nonpolar composition, which may have different dissolution characteristics and absorption profile in the body. Such changes in a pharmaceutical composition may be highly undesirable, due to unpredictability of effect.

[3] = system: subjects with pain following oral surgery, bedtime at least 3 hours early; assay: Study C (AE-98-02): ibuprofen/diphenhydramine combination vs ibuprofen alone after oral surgery; format: in vivo, human
Description: This was a randomized stratified (by baseline pain and gender), inpatient, placebo-controlled, partial-factorial, single-dose, double-blind, parallel group, single-center trial. Following oral surgery, subjects were housed and observed at a clinic site overnight. When subjects experienced at least moderate pain and it was between approximately 6:30 PM and 8:00 PM (at least 3 hours earlier than their usual bedtime), they received study medication and were required to go to bed for the evening. Sleep was evaluated by an observer at regular intervals over 3 hours post-dosing. […] Subjects also provided subjective assessments of sleep efficacy as well as global assessments of the study medication as a sleep-aid and as an analgesic the next morning (or at the time rescue medication was used).
The patients were assessed for duration of sleep, cumulative percent of subjects asleep at 60 minutes post-dosing (based on observed sleep latency assessments). they were also assessed for pain using SPRID2 (time-weighted sum of pain relief and pain intensity differences from baseline over 0-2 hours). Sleep latency (observer based), ease of falling asleep, and global evaluation of sleep were also used.
Cumulative percent of subjects asleep by 60 minutes was analyzed by the Cochran-Mantel-Haenszel test controlling for baseline PSR and gender. Subjective sleep and pain assessments were analyzed by analysis of variance (ANOVA), incorporating effects for treatment, baseline pain severity rating (PSR), and gender in the model. The distributions of sleep latency and time to rescue medication were assessed using the Kaplan-Meier estimates, and the variables were analyzed using the Cox proportional hazards (PH) regression model with treatment, baseline PSR, and gender effects. For both ANOVA and PH models, the interactions of treatment-by-baseline PSR and treatment-by-gender were assessed (at the 0.15 level) in separate models by adding each interaction term, one at a time, to the initial model. If each interaction was generally significant (p≦0.15), it was retained in the final model. In the assessment of treatment effects in the presence of interactions, each level of the stratifying variable was to be weighted equally.
In order to protect the Type I error at the 0.05 level, comparisons were tested in sequential order for the primary as well as the secondary efficacy endpoints. Each step had to be significant for the subsequent steps to be eligible for significance. […] The secondary end points were assessed, at the 0.05 level of significance, in a similar sequential order. The primary analysis of efficacy was based on the intent-to-treat (ITT) population, which included all randomized subjects who took study medication and had at least one post-baseline (sleep and pain) efficacy assessment.

[4] = system: normal sleep patterns in humans; conditions: cited from earlier work
[5] = oral administration, cited from earlier work
[6] = system: subjects of the partial factorial studies (pain after oral surgery); assay: Pooled data of studies AE-98-01/02; format: in vivo, human; conditions: for % who required remed.: Pooled Studies AE-98-01/02
Description: Data from two of the studies were pooled together. Some of the most significant study data are presented in Table 7, with graphical representations of the data in FIGS. 28-29.

[7] = system: patients with pain following oral surgery, bedtime 3 hours early; assay: Study B (AE-98-01): ibuprofen/diphenhydramine combination vs ibuprofen alone and placebo after oral surgery; format: in vivo, human
Description: This study was conducted in a similar manner to Example 1.
The placebo group also received soft gelatin capsules.
The trial was conducted as a randomized, stratified (by baseline pain and gender), inpatient, placebo controlled, partial factorial, single dose, double blind, parallel group, single center trial. Following oral surgery, patients were kept at the clinic site overnight. Study medications were dispenses when patients experienced pain at a moderate level or greater, and when it was between about 6:30 and 8:00 p.m. (3 hours prior to the patient's usual bedtime). Patients were required to go to sleep after receiving study medication.
The same sleep parameters were used as in Example 1. Additionally, global assessment as a pain reliever was determined. This parameter was a patient-assessed parameter made at the time of rescue medication, if needed, or in the morning, if no rescue medication. Pain relief was assessed on a five-point scale (0=poor, 1=fair, 2=good, 3=very good, 4=excellent). Sleep was monitored by an observer at regular intervals over 3 hours post-dosing. Patients provided pain assessments at 90 and 120 minutes post-dosing. Patients also provided subjective assessments of sleep efficacy, global assessments of sleep and pain the next morning or at the time rescue medication was used.
The following statistical methods were used. All analyses were done using SAS® Version 6.12. Subjective sleep and pain assessments were analyzed by analysis of variance (ANOVA), incorporating effects for treatment, baseline pain severity rating (PSR), and gender in the model. In addition, the interactions of treatment-by-baseline PSR and treatment-by-gender were assessed (at the 0.15 level) in separate models, by adding interaction terms, one at a time, to the initial ANOVA model. The distributions of sleep latency and time to rescue medication were assessed using the Kaplan-Meier estimates, and the variables were analyzed using the Cox proportional hazards regression model with treatment, baseline PSR and gender effects. In addition, the interactions of treatment-by-baseline PSR and treatment-by-gender were assessed (at the 0.15 level) in separate models by adding each interaction term, one at a time, to the initial model.
If each interaction was generally significant (p≦0.15), it was retained in the final model. In the assessment of treatment effects in the presence of interactions, each level of the stratifying variable were to be weighted equally (consistent with the ANOVA models). Ninety-five percent confidence intervals for the median time to sleep and median time to rescue medication were derived. In addition, the actual and cumulative proportion of subjects asleep at each observation time point and the cumulative proportion of subjects who took rescue medication by each observation time point were analyzed by the Cochran-Mantel-Haenszel test controlling for baseline PSR and gender.
In order to protect the Type I error at the 0.05 level, comparisons were tested in sequential order. Each step had to be significant for the subsequent steps to be eligible for significance.
The secondary end points were assessed at the 0.05 level of significance, in the same sequential order.
The primary analysis of efficacy was conducted on the intent-to-treat population, which included all randomized subjects who took the study medication and had at least one post-baseline (sleep and pain) efficacy assessment.

[8] = Study C, 5-point scale 0=poor to 4=excellent, IBU 400 mg, DPH 50 mg
[9] = Study B, 5-point scale 0=poor to 4=excellent, IBU 400 mg, DPH 50 mg

In the case of `CN(C)CCOC(c1ccccc1)c1ccccc1` [DPH, 2-(diphenylmethoxy)-N,N-dimethylethylamine], the “Duration of Sleep” value ([1]; ibuprofen 400 mg) was 0.23 A, the “Global Evaluation” value ([1]; ibuprofen 400 mg) was 0.77 A and the “% Requiring Rescue” value ([1]; ibuprofen 400 mg) was 97% B. For the same molecule, the “Cumulative % Asleep at 60 minutes” value ([1]; ibuprofen 400 mg) was 61.3 A %, the “Sleep Latency (median)” value [1] was 51.3 A and the “Time to Rescue (median)” value ([1]; ibuprofen 400 mg) was 2.04 A hours. The SPRID3 ([1]; ibuprofen 400 mg) was 1.8 A and the “interaction between ibuprofen and diphenhydramine in the composition” value [2] was “much more prone to interaction than the citrate form”.
For `CC(C)Cc1ccc(C(C)C(=O)O)cc1` (centres unmarked) [IBU, Ibuprofen], the “Ease of Falling Asleep” value ([1]; 5-point scale 0=did not fall asleep to 4=very easy, ibuprofen 400 mg) was 2.10 B, the “Duration of Sleep” value ([1]; ibuprofen 400 mg) was 2.68 B and the “Global Evaluation” value ([1]; ibuprofen 400 mg) was 1.84 B. The “% Requiring Rescue” value ([1]; ibuprofen 400 mg) was 45% B, the “Cumulative % Asleep at 60 minutes” value ([1]; ibuprofen 400 mg) was 77.4 AB % and the Sleep Latency (median) [1] was 25 min. The “Sleep Latency (median)” value ([1]; listed as ibuprofen) was “significantly better than the diphenhydramine and placebo groups”, the “Time to Rescue (median)” value ([1]; ibuprofen 400 mg) was greater than 10 B hours and the SPRID3 ([1]; ibuprofen 400 mg) was 13.7 B. The “Ease of Falling Asleep” value ([3]; Study C, 5-point scale 0-4, IBU 400 mg, DPH 50 mg) was 1.89^†, the “Global Assessment as a Pain Reliever” value [3, 8] was 2.51^† and the “Global Assessment as a Sleep-Aid” value [3, 8] was 1.57^†. For the same molecule, the “Duration of Sleep” value ([3]; Study C, 6-point categorical scale, IBU 400 mg, DPH 50 mg, soft gelatin capsules) was 1.98^†, the “PRID 90 minutes” value ([3]; Study C, 90 minutes post-dosing, IBU 400 mg, DPH 50 mg) was 3.83^†,§ and the “PRID 120 minutes” value ([3]; Study C, 120 minutes post-dosing, IBU 400 mg, DPH 50 mg) was 4.13^†. For the same molecule, the “% Requiring Rescue Medication for Any Reason” value ([3]; Study C, IBU 400 mg, DPH 50 mg) was 42.3^† %, the “Cumulative % Asleep at 60 minutes” value ([3]; Study C, IBU 400 mg, DPH 50 mg) was 75.6^† % and the “Time to Rescue Medication for Any Reason” value ([3]; Study C, IBU 400 mg, DPH 50 mg) was >12^† hours. For the same molecule, the SPRID2 ([3]; Study C, over 0-2 hours, IBU 400 mg, DPH 50 mg) was 7.81^†,§, the “% who required remed.” value ([3]; Table 7, Study AE-98-02) was “(42%)” and the “Time to Remed.” value ([3]; Table 7, Study AE-98-02) was greater than 12.0 B hrs. For the same molecule, the “Global Eval - Sleep-Aid” value ([3]; Table 7, Study AE-98-02, 5-point scale 0-Poor to 4 = Excellent) was 1.57 B, the “Duration of Sleep” value ([3]; Table 7, Study AE-98-02, 6-point scale 0 = <5 hrs to 5 = >9 hrs) was 1.98 B and the “effect on sleep (Gengo 1996)” value ([4]; healthy adults) was “no impact on sleep”. For the same molecule, the “effect on sleep (Murphy et al. 1994)” value ([4]; patients not suffering from pain) was “increase the number of awakenings and percentage of time spent in stage wake, and decrease sleep efficiency; also recorded: delay the onset of deeper stages of sleep”, the “time to peak serum concentrations” value ([5]; suspensions) was no more than 1 h and the “time to peak serum concentrations” value ([5]; tablets) was no more than 2 h. For the same molecule, the “% who required remed.” value [6] was “(45%)”, the “% who required remed.” value ([6]; listed as ibuprofen) was 45% and the “Time to Remed.” value ([6]; Table 7, Pooled Studies AE-98-01/02) was greater than 12.0 B hrs. For the same molecule, the “Duration of Sleep” value ([6]; Table 7, Pooled Studies AE-98-01/02, 6-point scale) was 2.12 B, the “Global Eval - Sleep-Aid” value ([6]; Table 7, pooled studies, 5-point scale 0-Poor to 4 = Excellent) was 1.60 B and the “subjects who slept for less than 5 hours” value ([6]; pooled data) was 32%. The “Ease of Falling Asleep - mean” value ([7]; Study B, 5-point scale 0-4, IBU 400 mg, DPH 50 mg) was 1.81*, the “Global Assessment as a Pain Reliever” value [7, 9] was 2.30* and the “Global Assessment as a Sleep-Aid” value [7, 9] was 1.63*. The “Duration of Sleep - mean” value ([7]; Study B, 6-point categorical scale, IBU 400 mg, DPH 50 mg) was 2.26*, the “PRID 90 minutes” value ([7]; Study B, 90 minutes post-dosing, IBU 400 mg, DPH 50 mg) was 3.72* and the “PRID 120 minutes” value ([7]; Study B, 120 minutes post-dosing, IBU 400 mg, DPH 50 mg) was 4.09*. The “% Requiring Rescue Medication for Any Reason” value ([7]; Study B, IBU 400 mg, DPH 50 mg) was 48.3* %, the SPRID2 ([7]; Study B, IBU 400 mg, DPH 50 mg) was 7.63* and the “Sleep Latency (Observed) - median” value ([7]; Study B, IBU 400 mg, DPH 50 mg) was 44.0* minutes. For the same molecule, the “Time to Rescue Medication for Any Reason” value ([7]; Study B, IBU 400 mg, DPH 50 mg) was >12* hours, the “Cumulative % Asleep at 60 minutes” value ([7]; Study B, IBU 400 mg, DPH 50 mg, soft gelatin capsules) was 64.4^† % and the “% who required remed.” value ([7]; Table 7, Study AE-98-01) was “(48%)”. The “Time to Remed.” value ([7]; Table 7, Study AE-98-01) was greater than 12.0 B hrs, the “Global Eval - Sleep-Aid” value ([7]; Table 7, Study AE-98-01, 5-point scale 0-Poor to 4 = Excellent) was 1.63 B and the “Duration of Sleep” value ([7]; Table 7, Study AE-98-01, 6-point scale 0 = <5 hrs to 5 = >9 hrs) was 2.26 B.
